Reference: US20040176329A1, “Drugs for promoting the proliferation, differentiation and/or survival of glial cells containing cyclic phosphatidic acid” (priority 2001, published 2004)

What was measured:
NIH-3T3 = assay: Formation of stress fiber in NIH-3T3 by addition of lysophospholipids; type: cell-based, mouse; settings: 10 μM, 37° C., 30 minutes, subconfluent serum starvation state; control: no formation
Description: NIH-3T3, a mouse-derived fibroblast cell, was incubated in a Dulbecoo's Modified Eagle's Medium (DMEM) containing 10% fetal bovine serum (FBS; made by Moregate), and was used in the Experiment. 2.5 ×10^4 cells of the NIH-3T3 were inoculated in a petri dish (10 cm in diameter) paved with cover glasses of 22 mm in diameter, and the medium was replacing with a FBS-free medium after 24 hours, and the cells were incubated in a serum starvation state for 48 hours. 10 μM of the lysophospholipid was added, and the cells were incubated at 37° C. for 30 minutes for stimulation. Then, the cells were fixed in the Dalbecco's PBS containing 3.7% of paraformaldehyde and 0.1% of Triton X-100 at room temperature for 10 minutes. Thereafter, the cells were stained with 5 units/ml of rhodamine phalloidin (made by Funakoshi) at 37° C. for 1 hour. The cover glasses were washed with PBS thrice, and observation was carried out by a cofocus laser microscope TCS NT Control laser Scanning Microscope (made by Leica).
The product obtained by the A.sp.362-derived PLD reaction was studied with respect to its biochemical activity in order to confirm further that it was a compound which is identical to cPA. Namely, the activity of forming actin stress fiber in a fibroblast cell, one of the physiological activities of cPA, was studied. To NIH-3T3, i.e. a fibroblast cell line derived from mouse, in the subconfluent state in the serum starvation state, each 10 μM of LPA, a chemically synthesized PHYLPA, or cPA, i.e. the PLD reaction product was added at 37° C. for 30 minutes, and then actin stress fiber was stained with Rhodamine phalloidin, and observation was carried out.

O-2A precursor cells = assay: Oligodendrocyte primary culturing system with cPA or LPA added: O-2A precursor cells; type: cell-based, rat; settings: 5 μM per dish; for number of O-2A precursor cells versus control: 6th day from first passage (1P-6th day)
Description: (§1) A mother rat of 18 days of pregnancy (E18Wistar Rat) was put into an anesthesia bottle containing an adequate amount of diethyl ether, and was anesthetized. The anesthetization was carried out for 3-5 minutes and stopped just before death. The mother rat was taken out of the anesthesia bottle, put on a suitable vat to lie on its back, and disinfected at the hypogastric area with ethanol. The rat was tom along a cut line about 3-4 cm upward from the tail joint by a scissors, and opened sideward with the scissors to separate the inner membrane from the skin. The skin was tom to expose the inner membrane, which was disinfected again with ethanol and tom to take out the uterus. The Y-shaped section of the uterus was cut while lifting the uterus, and the uterus was taken out. The taken out uterus was dipped in a cooled MEM^− in order to decrease the damage of the fetus brain.
(§2) The cerebral cortex was picked by a round pincette into a 35 mm dish to which 2 ml of dispase I (3 U/ml) was added, and was placed in a CO2 5% and humidity 95% incubator at 37° C. for 5 minutes. Then, Dnase (1 ml) was added thereto, and the dish was put in the incubator for 10 minutes again. The resultant solution was sufficiently pipetted while being careful not to make bubbles by a Pasteur pipette having the top end rounded by burning, so that the cells might be free from any bundles. The upper inlet of 50 ml tube was covered with a 70 μm mesh, and the mesh was then wetted with an adequate amount of MEM^−. The cell suspension thus obtained was poured into the tube through the mesh, and about 2 ml of MEM^− was poured to wash the mesh. The mesh was removed, and the resultant was messed up to 30-40 ml with MEM^−. The thus obtained sample was centrifuged at 1,000 rpm for 5 minutes, and the supernatant was removed. The sample was messed up again to 30-40 ml with MEM^−, pipetted and centrifuged again at 1,000 rpm. The supernatant was removed, and the sample was supplied with 30 ml of MEM^−, and sufficiently pipetted, and then the cell number was countered by a cell counter. The cell suspension was inoculated in the PLL-coated dishes to be 1.0×10^7 cells/dish. The liquid was adjusted with MEM^+ to be a final volume of 10 ml/dish, and the cells were cultured in an incubator.
After disposal of the culture medium, the dish is washed twice with about 3 ml of PBS(−), and 10 ml of the fresh culture medium is poured. The medium change after the 17th day is carried out using B.S (serum-free medium). […]
(§3) The dish is washed twice with about 5 ml of PBS(−). […] Then, the cell number is counted by a cell counter. The supernatant is discarded, 20-30 ml of MEM^+ (B.S at the third passage) is added, and the resultant is pipetted, and the cell number is counted by a cell counter. […]

[1] = test system: primary cultured cerebral cortex cells (neurons); assay: Oligodendrocyte primary culturing system with cPA or LPA added: cell appearance at early culturing stage; type: cell-based, rat; settings: 5 μM per dish, FIG. 7; for aggregation of cells and bundling of neurons: early culturing stage (P-6th day)
Description: as §1
as §2, with “The sample was messed up again to 30-40 ml with MEM^−, pipetted and centrifuged again at 1,000 rpm. The supernatant was removed, and the sample was supplied with 30 ml of MEM^−, and sufficiently pipetted, and then the cell number was countered by a cell counter. The cell suspension was inoculated in the PLL-coated dishes to be 1.0×10^7 cells/dish. The liquid was adjusted with MEM^+ to be a final volume of 10 ml/dish, and the cells were cultured in an incubator.” left out
as §3

oligodendrocytes = assay: Oligodendrocyte primary culturing system with cPA or LPA added: oligodendrocytes; type: cell-based, rat; settings: 5 μM per dish; for oligodendrocyte cell number and dendrites: further 10 days after 3P-OL, FIG. 13
Description: as §1, §2
(§4) After disposal of the culture medium, the dish is washed twice with about 3 ml of PBS(−), and 10 ml of the fresh culture medium is poured. The medium change after the 17th day is carried out using B.S (serum-free medium). Only at the first medium change, 200 μl of bFGF is added per dish. It is because the O-2A precursor cell is grown.
(§5) The dish is washed twice with about 5 ml of PBS(−). At the first passage, the dish is left stand for 2-3 minutes after supplying PBS(−) at the second time. 2-3 ml of 0.05% trypsin is added, and the dish is left stand in a 37° C. incubator for 8 minutes. After observation of the cell condition with a microscope, while keeping the trypsin as it was, the dish is supplied with MEM^+ at the same amount as the trypsin, and the cells is pipetted to stop the action of trypsin. The resultant was centrifuged at 1,000 rpm for 5 minutes. After removing the supernatant, 20-30 ml of MEM^− is added, and the resultant is pipetted again, centrifuged at 1,000 rpm for 5 minutes. Then, the cell number is counted by a cell counter. The supernatant is discarded, 20-30 ml of MEM^+ (B.S at the third passage) is added, and the resultant is pipetted, and the cell number is counted by a cell counter. Depending on respective passage stages, the cells are inoculated in respective dishes at the following number, and are cultured while left standing in an incubator.
(§6) From the stage of primary culturing, cPA or LPA was added to be an amount of 5 μM per dish every passage and medium change. […]

astrocytes = assay: Oligodendrocyte primary culturing system with cPA or LPA added: astrocytes; type: cell-based, rat; settings: 5 μM per dish; for astrocytes by GFAP staining: 2P-6th day, fluorescence microscope, FIG. 10; for state and cell density of astrocytes: 6th day from second passage (2P-6th day), serum-free medium, FIG. 9; for remaining astrocytes: 6th day from third passage (3P-6th day), FIG. 11
Description: as §1, §2, §4, §5, §6

[2] = 3P-6th day, fluorescence microscope, FIG. 12

| Compound | formation of actin stress fiber (Rhodamine phalloidin staining) (NIH-3T3) | cell density (O-2A precursor cells; 1P-6th day, FIG. 8) | number of O-2A precursor cells versus control (O-2A precursor cells; FIG. 8) | proliferation of O-2A precursor cells (conclusion) (O-2A precursor cells; early culturing stage) | aggregation of cells and bundling of neurons [1] | MBP staining colour versus control (oligodendrocytes; [2]) | oligodendrocyte cell number and dendrites (oligodendrocytes) | astrocytes by GFAP staining (astrocytes) | state and cell density of astrocytes (astrocytes) | remaining astrocytes (astrocytes) | survival of astrocytes (conclusion) (astrocytes; all culturing stages) | survival of astrocytes (astrocytes; further 10 days after 3P-OL, FIG. 13) | cell appearance versus control ([1]; 6th day from primary culturing (P-6th day)) | differentiation of oligodendrocytes by 04 staining (oligodendrocytes; 2P-6th day, fluorescence microscope, FIG. 10) | state of dendrites of oligodendrocytes (oligodendrocytes; 3P-6th day, FIG. 11) | extent of MBP staining along the dendrite (oligodendrocytes; 3P-6th day, FIG. 12) |
| --- | --- | --- | --- | --- | --- | --- | --- | --- | --- | --- | --- | --- | --- | --- | --- | --- |
| CCCCCC[C@@H]1C[C@@H]1CCCCCCCC(=O)OC[C@@H]1COP(=O)(O)O1 [PHYLPA] | formation of stress fibers was observed |  |  |  |  |  |  |  |  |  |  |  |  |  |  |  |
| CCCCCCCC/C=C\CCCCCCCC(=O)OCC1COP(=O)(O)O1 (stereo not shown) [cPA, 1-oleoyl cyclic phosphatidic acid] | formation of stress fibers was observed | much higher than the others | increase in number more remarkably | promotes O-2A precursor cells to proliferate | causes cells to aggregate and neurons to be bundled | develops color stronger | many dendrites of oligodendrocytes around them which were not suffered from apoptosis | exists in a dense tissue | remained vigorous, and remained high in cell density | the astrocytes which was deformed to the narrow ones still remain | promotes the survival of astrocytes through all their culturing stages | the astrocytes survived even at this stage |  |  |  |  |
| lysophosphatidic acid [LPA] | formation of stress fibers was observed |  | increase in number more remarkably |  | aggregate to form bundles of the neurons | develops color stronger | the cell number itself decreased and the dendrite fell ragged | the tissue of the astrocytes can be confirmed | lowered in cell density, though not so wrong as in the control | little astrocytes remains |  |  | no large difference in cell appearance | elongated dendrites to form fine mesh-shape and differentiations is proceeded | dendrites of the oligodendrocytes suffer from aoptosis and begin to be ragged | even the tip of the dendrite is stained |
